{
  "source": "patent US4273923A",
  "about": "“Process for preparing aminoglycoside derivatives” (Shionogi & Co., Ltd., priority 1979, dated 1981)",
  "tested_on": "Staphylococcus epidermidis TB-172",
  "assay": "MIC by agar dilution method",
  "format": "cell-based",
  "details": "TB172, tobramycin resistant strain, innoculum size 10^4 CFU/ml, 37° C., 18 to 20 hours, read-out: Minimum Inhibitory Concentration (MIC)",
  "data": [
    {"compound": "NC[C@H]1O[C@H](O[C@H]2[C@H](O)[C@@H](O[C@H]3O[C@H](CO)[C@@H](O)[C@H](N)[C@H]3O)[C@H](N)C[C@@H]2N)[C@H](N)C[C@@H]1O", "note": "[TOB, tobramycin]", "values": [
      {"measurement": "MIC", "result": 25, "unit": "µg/mL"}
    ]},
    {"compound": "NCC1=CC[C@@H](N)[C@@H](O[C@H]2[C@H](O)[C@@H](O[C@H]3O[C@H](CO)[C@@H](O)[C@H](N)[C@H]3O)[C@H](N)C[C@@H]2N)O1", "note": "[[A], O-[3-amino-3-deoxy-α-D-glucopyranosyl-(1→6)]-O-[2,6-diamino-2,3,4,6-tetradeoxy-α-D-glycero-hex-4-enopyranosyl-(1→4)]-2-deoxy-D-streptamine]", "values": [
      {"measurement": "MIC", "result": 0.1, "unit": "µg/mL"}
    ]}
  ]
}
